Test results as given in PMC8241142 (Drug Delivery, 2017).

Columns and labels:
[1] = In vitro release of DZP samples (USP II paddle method); assay type: physicochemical; conditions: deionized water, 37 °C, 50 rpm
Protocol: (§1) Dissolution studies of samples were carried out according to a USP II paddle method at 37 °C with a stirrer rotation speed of 50 rpm in a dissolution apparatus (ZRD6-B, Shanghai Huanghai Medicament Test Instrument Factory, Shanghai, China). […] At predetermined time intervals, 5 ml samples were taken out and replaced by fresh medium immediately. Then, samples were passed through a 0.22 μm membrane filter and were transferred to UV/Vis analysis at the wavelength of 240 nm.

[2] = test system: mouse ear swelling caused by xylene; assay: Mouse ear swelling test (MEST); assay type: in vivo, Kunming mice; conditions: intragastric, 0.6 mg NMS, 50 min
Protocol: The mouse ear swelling test was developed to further evaluate the swelling inhibition potential of NMS/CMS. In detail, 16 male Kunming mice weighing 18–22 g were randomly divided into four groups (n = 4): NS group (negative control group), NMS group (positive control group), NMS/CMS group ([…]) and NMS/MCM41 group ([…]). Samples containing 0.6 mg NMS were suspended in normal saline and imposed to mice in all groups by intragastric administration. Mice in NS group were exposed to normal saline only. At 30 min after administration, 0.1 ml xylene was applied on each side of the left ear of mice, and the right ear regarded as a reference was left untreated. After 50 min, mice were executed, both ears were removed, and tissues with diameter of 0.6 cm were cut off by hole punch. The weight of the tissues cut from left and right ears was measured by electronic scale. The repression rate and the degree of ear swelling were, respectively, expressed as: (3) Repression rate (%)=(wL-wR)negative control-(wL-wR)test/(wL-wR)negative control-(wL-wR)positive control×100 (4) Swelling rate (%)=wL-wR/wR×100 where w L is the weight of tissue cut from the left ear and w R is the weight of tissue cut from the right ear of the same mice.

[3] = In vitro release of NMS samples (USP II paddle method, PBS pH 7.8); assay type: physicochemical; conditions: PBS pH 7.8, 37 °C
Protocol: as §1
Samples containing 5 mg NMS were put into 250 ml phosphate buffer solutions (PBS, pH 7.8) at 37 °C.

Structure (SMILES) | cumulative release percentage within 24 h [1] [%] | ear swelling rate [2] [%] | accumulative release percentage within 24 h [3] [%]
CN1C(=O)CN=C(c2ccccc2)c2cc(Cl)ccc21 [DZP, Diazepam] | 66.75 |  | 
CS(=O)(=O)Nc1ccc([N+](=O)[O-])cc1Oc1ccccc1 [NMS, Nimesulide] |  | 32.4 | 93.1
